Laboratory results published in US7932283B2, “Fungicide N-cyclopropyl-sulfonylamide derivatives” (Bayer Cropscience AG, priority 2006, dated 2011).

Experiment: logP by HPLC on reversed-phase column (C 18), EEC Directive 79/B31 Annex V.A8, methods A and B
Assay type: physicochemical
Conditions: reversed-phase HPLC column (C 18), HPLC reversed-phase C 18, method B: 40° C., 0.1% aqueous formic acid and acetonitrile, linear gradient 10% to 90% acetonitrile
Experimental: Calibration was carried out using unbranched alkan-2-ones (having 3 to 16 carbon atoms) with known logP values (determination of the logP values by the retention times using linear interpolation between two successive alkanones).

SMILES | chromatographic logP
CCc1nn(C)c(F)c1C(=O)N(C1CC1)S(=O)(=O)c1cc(C(F)(F)F)ccc1O [Compound 384] | 3.5
CCc1nn(C)c(F)c1C(=O)N(C1CC1)S(=O)(=O)c1ccc(Br)cc1O [Compound 385] | 3.4
CCc1nn(C)c(F)c1C(=O)N(C1CC1)S(=O)(=O)c1ccc(OC)c(OC)c1 [Compound 386] | 2.5
CCc1nn(C)c(F)c1C(=O)N(C1CC1)S(=O)(=O)c1ccc(Oc2cccc(C(F)(F)F)c2)cc1 [Compound 388] | 4.2
CCc1nn(C)c(F)c1C(=O)N(C1CC1)S(=O)(=O)c1ccc(Oc2ccc(C(F)(F)F)cc2)cc1 [Compound 389] | 4.3
CCc1nn(C)c(F)c1C(=O)N(C1CC1)S(=O)(=O)c1ccc(Oc2ccc(Br)cc2)cc1 [Compound 390] | 4.4
CCc1nn(C)c(F)c1C(=O)N(C1CC1)S(=O)(=O)c1ccc(Oc2ccc(O)cc2)cc1 [Compound 391] | 4.2
COc1ccc(S(=O)(=O)N(C(=O)c2cn(C)nc2OC)C2CC2)cc1OC [Compound 395] | 1.9

Same assay, conditions: reversed-phase HPLC column (C 18), LogP method A: HPLC reversed-phase C 18, 43° C., 0.1% aqueous phosphoric acid / acetonitrile, linear gradient 10% to 90% acetonitrile

SMILES | chromatographic logP
Cc1nn(C)c(Oc2cccc(O)c2)c1C(=O)N(C1CC1)S(=O)(=O)c1cccc(O)c1 [Compound 399] | 3.94
Cc1nn(C)c(Oc2cccc(Cl)c2)c1C(=O)N(C1CC1)S(=O)(=O)c1ccc(C(F)(F)F)cc1 [Compound 400] | 4.13
Cc1n[nH]c(C)c1C(=O)N(C1CC1)S(=O)(=O)c1cccc(Cl)c1 [Compound 401] | 2.45
Cc1n[nH]c(C)c1C(=O)N(C1CC1)S(=O)(=O)c1ccc(C(F)(F)F)cc1 [Compound 402] | 2.5
Cc1nn(C)c(C)c1C(=O)N(C1CC1)S(=O)(=O)c1ccc(C(F)(F)F)cc1 [Compound 403] | 3
Cc1nn(C)c(Oc2cccc(Cl)c2)c1C(=O)N(C1CC1)S(=O)(=O)c1ccc(O)c(C(F)(F)F)c1 [Compound 404] | 4.56
Cc1nn(C)c(Oc2cccc(O)c2)c1C(=O)N(C1CC1)S(=O)(=O)c1ccc(O)c(O)c1 [Compound 405] | 4.46
Cc1nn(C)c(O)c1C(=O)N(C1CC1)S(=O)(=O)c1ccc(O)c(C(F)(F)F)c1 [Compound 406] | 3.76
Cc1nn(C)c(O)c1C(=O)N(C1CC1)S(=O)(=O)c1ccc(O)c(O)c1 [Compound 407] | 3.63
Cc1n[nH]c(C)c1C(=O)N(C1CC1)S(=O)(=O)c1ccc(O)c(C(F)(F)F)c1 [Compound 408] | 3
Cc1n[nH]c(C)c1C(=O)N(C1CC1)S(=O)(=O)c1ccc(O)c(O)c1 [Compound 409] | 2.74
Cc1n[nH]c(C)c1C(=O)N(C1CC1)S(=O)(=O)c1ccc(C(C)(C)C)cc1 [Compound 410] | 3.04
Cc1nn(C)c(C)c1C(=O)N(C1CC1)S(=O)(=O)c1ccc(O)c(C(F)(F)F)c1 [Compound 411] | 3.37
Cc1nn(C)c(C)c1C(=O)N(C1CC1)S(=O)(=O)c1ccc(O)c(O)c1 [Compound 412] | 3.21
Cc1nn(C)c(C)c1C(=O)N(C1CC1)S(=O)(=O)c1ccc(O)cc1O [Compound 413] | 2.8
Cc1nn(C)c(C)c1C(=O)N(C1CC1)S(=O)(=O)c1ccc(C(C)(C)C)cc1 [Compound 414] | 3.41
COC(=O)c1csc(C)c1S(=O)(=O)N(C(=O)c1c(C)nn(C)c1F)C1CC1 [Compound 434] | 2.24
Cc1nn(C)c(F)c1C(=O)N(C1CC1)S(=O)(=O)c1cnc(O)c(Br)c1 [Compound 447] | 3.08

Same assay, conditions: reversed-phase HPLC column (C 18), LogP method B: HPLC reversed-phase C 18, 40° C., 0.1% aqueous formic acid / acetonitrile, linear gradient 10% to 90% acetonitrile

SMILES | chromatographic logP
CCc1nn(C)c(F)c1C(=O)N(C1CC1)S(=O)(=O)c1c(O)sc(O)c1O [Compound 437] | 3.85
COc1nn(C)cc1C(=O)N(C1CC1)S(=O)(=O)c1csc(O)c1O [Compound 440] | 3.1
Cc1nn(C)c(O)c1S(=O)(=O)N(C(=O)c1c(C(F)(F)F)nn(C)c1F)C1CC1 [Compound 443] | 2.6
COc1nn(C)cc1C(=O)N(C1CC1)S(=O)(=O)c1cnn(C)c1O [Compound 444] | 1.7
COc1nn(C)cc1C(=O)N(C1CC1)S(=O)(=O)c1cnc(O)c(Br)c1 [Compound 449] | 2
COc1nn(C)cc1C(=O)N(C1CC1)S(=O)(=O)c1ccc(Oc2ccc(C)nc2)cc1Br [Compound 458] | 2
COc1nn(C)cc1C(=O)N(C1CC1)S(=O)(=O)c1ccc(F)cc1Br [Compound 459] | 2.2
COc1nn(C)cc1C(=O)N(C1CC1)S(=O)(=O)c1ccccc1C(F)(F)F [Compound 460] | 2.3
COc1nn(C)cc1C(=O)N(C1CC1)S(=O)(=O)c1c(O)cc(Cl)cc1O [Compound 461] | 2.7
COc1ccc(Oc2ccc(S(=O)(=O)N(C(=O)c3cn(C)nc3OC)C3CC3)c(Br)c2)cc1OC [Compound 462] | 2.9
COc1ccc(Oc2ccc(S(=O)(=O)N(C(=O)c3cn(C)nc3OC)C3CC3)c(Br)c2)cc1 [Compound 463] | 3.3
COc1nn(C)cc1C(=O)N(C1CC1)S(=O)(=O)c1ccc(Oc2ccccc2)cc1Br [Compound 464] | 3.3
COc1nn(C)cc1C(=O)N(C1CC1)S(=O)(=O)c1ccc(Oc2ccccc2O)cc1Br [Compound 465] | 3.5
COc1nn(C)cc1C(=O)N(C1CC1)S(=O)(=O)c1ccc(Oc2cccc(N(C)C)c2)cc1Br [Compound 466] | 3.5
COc1nn(C)cc1C(=O)N(C1CC1)S(=O)(=O)c1ccc(Oc2ccc(C)cc2)cc1Br [Compound 467] | 3.7
COc1nn(C)cc1C(=O)N(C1CC1)S(=O)(=O)c1ccc(Oc2cccc(O)c2)cc1Br [Compound 468] | 3.7
COc1nn(C)cc1C(=O)N(C1CC1)S(=O)(=O)c1ccc(Oc2ccc(Cl)cc2)cc1Br [Compound 469] | 3.8
COc1nn(C)cc1C(=O)N(C1CC1)S(=O)(=O)c1ccc(Oc2ccc(C)c(O)c2)cc1Br [Compound 470] | 3.8
COc1nn(C)cc1C(=O)N(C1CC1)S(=O)(=O)c1ccc(Oc2cccc(C(F)(F)F)c2F)cc1Br [Compound 471] | 3.8
COc1nn(C)cc1C(=O)N(C1CC1)S(=O)(=O)c1ccc(Oc2cccc(C(F)(F)F)c2)cc1Br [Compound 472] | 3.8
COc1nn(C)cc1C(=O)N(C1CC1)S(=O)(=O)c1ccc(Oc2cccc(Br)c2)cc1Br [Compound 473] | 3.8
COc1nn(C)cc1C(=O)N(C1CC1)S(=O)(=O)c1ccc(Oc2ccc(Br)cc2)cc1Br [Compound 474] | 3.9

SMILES | chromatographic logP
COc1nn(C)cc1C(=O)N(C1CC1)S(=O)(=O)c1ccc(Oc2ccc(C(F)(F)F)cc2)cc1Br [Compound 475] | 3.9
COc1nn(C)cc1C(=O)N(C1CC1)S(=O)(=O)c1ccc(Oc2cccc(OC(F)(F)F)c2)cc1Br [Compound 476] | 4
COc1nn(C)cc1C(=O)N(C1CC1)S(=O)(=O)c1ccc(Oc2ccc(O)cc2Cl)cc1Br [Compound 477] | 4.1
COc1nn(C)cc1C(=O)N(C1CC1)S(=O)(=O)c1ccc(Oc2ccc(O)c(O)c2)cc1Br [Compound 478] | 4.2
COc1nn(C)cc1C(=O)N(C1CC1)S(=O)(=O)c1ccc(Oc2ccc(Cl)c(C(F)(F)F)c2)cc1Br [Compound 479] | 4.2
COc1nn(C)cc1C(=O)N(C1CC1)S(=O)(=O)c1ccc(Oc2ccc(Br)c(O)c2)cc1Br [Compound 480] | 4.2
COc1nn(C)cc1C(=O)N(C1CC1)S(=O)(=O)c1ccc(Oc2cc(O)cc(O)c2)cc1Br [Compound 481] | 4.3
CCCCCc1ccc(Oc2ccc(S(=O)(=O)N(C(=O)c3cn(C)nc3OC)C3CC3)c(Br)c2)cc1 [Compound 482] | 5.4
CCOc1nn(C)cc1C(=O)N(C1CC1)S(=O)(=O)c1ccc(Oc2ccc(C)cc2)cc1Cl [Compound 525] | 2.2
CCOc1nn(C)cc1C(=O)N(C1CC1)S(=O)(=O)c1ccc(Oc2ccc(C)nc2)cc1Br [Compound 526] | 2.3
CCOc1nn(C)cc1C(=O)N(C1CC1)S(=O)(=O)c1ccc(Oc2ccc(OC)c(OC)c2)cc1O [Compound 527] | 3.2
CCOc1nn(C)cc1C(=O)N(C1CC1)S(=O)(=O)c1ccc(Oc2ccc(OC)cc2)cc1O [Compound 529] | 3.5
CCOc1nn(C)cc1C(=O)N(C1CC1)S(=O)(=O)c1ccc(OC2=CC(N(C)C)=CCC2)cc1O [Compound 532] | 3.8
CCOc1nn(C)cc1C(=O)N(C1CC1)S(=O)(=O)c1ccc(Oc2cccc(O)c2)cc1O [Compound 534] | 3.9
CCOc1nn(C)cc1C(=O)N(C1CC1)S(=O)(=O)C1C=CC(Oc2ccc(F)c(O)c2)=CC1O (stereo not drawn) [Compound 536] | 4
CCOc1nn(C)cc1C(=O)N(C1CC1)S(=O)(=O)c1ccc(Oc2ccccc2O)c(O)c1 [Compound 537] | 4.1
CCOc1nn(C)cc1C(=O)N(C1CC1)S(=O)(=O)c1ccc(Oc2cccc(Br)c2)cc1Br [Compound 540] | 4.2
CCOc1nn(C)cc1C(=O)N(C1CC1)S(=O)(=O)c1ccc(Oc2ccc(Br)cc2)cc1Br [Compound 541] | 4.2
CCOc1nn(C)cc1C(=O)N(C1CC1)S(=O)(=O)c1ccc(Oc2ccc(O)cc2Cl)cc1O [Compound 543] | 4.3
CCOc1nn(C)cc1C(=O)N(C1CC1)S(=O)(=O)C1C=CC(Oc2ccc(Br)c(O)c2)=CC1O (stereo not drawn) [Compound 544] | 4.3
CCOc1nn(C)cc1C(=O)N(C1CC1)S(=O)(=O)C1C=CC(Oc2cccc(C(F)(F)F)c2)=C(O)C1 (stereo not drawn) [Compound 549] | 4.4
